One compound from publication PMC8795738, “The Tarantula Venom Peptide Eo1a Binds to the Domain II S3-S4 Extracellular Loop of Voltage-Gated Sodium Channel NaV1.8 to Enhance Activation” (Frontiers in Pharmacology, 2022) can be followed below.

One assay deals with NaV1.8 (Homo sapiens, UniProt Q9Y5Y9). Description: I-V protocol, whole-cell patch-clamp, NaV1.8. The following applies: Eo1a 10 μM. Type of assay: cell-based. Here is the method: (§1) Human Embryonic Kidney (HEK) 293 cells stably expressing human NaV1.1 to NaV1.7/β1 (SB Drug Discovery, Glasgow, United Kingdom), Chinese Hamster Ovary (CHO) cells stably expressing human NaV1.8/β3 in a tetracycline-inducible system (ChanTest, Cleveland, OH, United States), and HEK293 cells stably expressing rat transient receptor potential vanilloid 1 (TRPV1) were cultured as previously described ([Yin et al., 2020]). Human KV2.1 and NaV1.7 mutants were transiently transfected into HEK293 cells stably expressing β1/β2 using Lipofectamine 2000 (Thermo Fisher Scientific, Scoresby, VIC, Australia) and used for patch-clamp experiments 48 h after transfection. Cells were grown in an incubator at 37°C with 5% CO2 and passaged every 3–4 d (at 70–80% confluency) using TrypLE Express (Thermo Fisher Scientific).
Sequence of NaV1.8 (Q9Y5Y9 whole entry): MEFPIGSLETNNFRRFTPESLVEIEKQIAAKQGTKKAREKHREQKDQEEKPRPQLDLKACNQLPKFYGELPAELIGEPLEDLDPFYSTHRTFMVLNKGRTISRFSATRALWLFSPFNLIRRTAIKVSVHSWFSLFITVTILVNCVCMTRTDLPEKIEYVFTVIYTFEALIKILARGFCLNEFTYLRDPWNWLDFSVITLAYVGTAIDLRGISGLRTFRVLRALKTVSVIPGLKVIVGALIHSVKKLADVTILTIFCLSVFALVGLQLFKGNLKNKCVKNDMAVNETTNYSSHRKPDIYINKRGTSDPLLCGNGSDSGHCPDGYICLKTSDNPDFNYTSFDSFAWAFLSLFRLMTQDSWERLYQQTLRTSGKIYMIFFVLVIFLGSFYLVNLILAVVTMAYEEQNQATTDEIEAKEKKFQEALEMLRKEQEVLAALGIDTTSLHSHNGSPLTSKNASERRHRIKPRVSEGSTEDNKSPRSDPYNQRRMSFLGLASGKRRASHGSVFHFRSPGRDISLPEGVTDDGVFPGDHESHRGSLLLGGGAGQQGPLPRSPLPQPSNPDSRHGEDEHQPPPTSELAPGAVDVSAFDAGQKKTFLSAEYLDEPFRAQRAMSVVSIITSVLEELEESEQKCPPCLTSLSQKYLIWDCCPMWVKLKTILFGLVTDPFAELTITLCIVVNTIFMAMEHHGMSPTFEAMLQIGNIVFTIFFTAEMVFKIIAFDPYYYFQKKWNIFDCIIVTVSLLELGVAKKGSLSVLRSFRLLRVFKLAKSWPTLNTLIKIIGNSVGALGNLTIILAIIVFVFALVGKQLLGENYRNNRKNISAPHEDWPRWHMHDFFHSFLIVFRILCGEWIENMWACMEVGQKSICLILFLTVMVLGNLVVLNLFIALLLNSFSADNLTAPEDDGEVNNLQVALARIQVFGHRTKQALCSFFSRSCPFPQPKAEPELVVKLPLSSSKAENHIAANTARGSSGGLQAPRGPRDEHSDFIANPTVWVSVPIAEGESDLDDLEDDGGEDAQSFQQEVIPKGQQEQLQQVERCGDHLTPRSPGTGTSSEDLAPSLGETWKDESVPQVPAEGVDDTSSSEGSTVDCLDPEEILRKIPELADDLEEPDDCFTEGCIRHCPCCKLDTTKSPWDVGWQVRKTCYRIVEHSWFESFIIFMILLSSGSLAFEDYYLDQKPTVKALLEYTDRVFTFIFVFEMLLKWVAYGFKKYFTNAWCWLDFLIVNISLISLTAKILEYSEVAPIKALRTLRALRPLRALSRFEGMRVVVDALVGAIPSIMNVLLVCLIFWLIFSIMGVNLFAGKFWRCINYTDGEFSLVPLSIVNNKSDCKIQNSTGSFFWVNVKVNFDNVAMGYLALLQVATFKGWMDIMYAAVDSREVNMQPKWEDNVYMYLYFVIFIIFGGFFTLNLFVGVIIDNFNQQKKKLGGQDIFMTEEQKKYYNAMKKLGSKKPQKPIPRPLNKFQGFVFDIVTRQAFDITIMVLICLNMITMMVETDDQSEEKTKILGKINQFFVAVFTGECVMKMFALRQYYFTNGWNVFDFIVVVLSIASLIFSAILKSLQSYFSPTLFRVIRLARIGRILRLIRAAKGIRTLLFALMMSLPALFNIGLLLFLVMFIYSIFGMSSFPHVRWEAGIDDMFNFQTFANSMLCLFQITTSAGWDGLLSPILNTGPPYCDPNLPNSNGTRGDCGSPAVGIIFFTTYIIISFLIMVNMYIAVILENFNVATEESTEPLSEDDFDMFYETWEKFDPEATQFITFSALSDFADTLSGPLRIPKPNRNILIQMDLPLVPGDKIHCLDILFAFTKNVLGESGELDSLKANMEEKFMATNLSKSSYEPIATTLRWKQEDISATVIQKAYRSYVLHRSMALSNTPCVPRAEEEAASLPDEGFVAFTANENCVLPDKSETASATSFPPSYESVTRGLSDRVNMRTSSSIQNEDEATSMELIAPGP
(§2) Automated whole-cell patch-clamp recordings were performed with a QPatch-16 automated electrophysiology platform (Sophion Bioscience, Ballerup, Denmark) using single-hole (QPlate 16 with a standard resistance of 2 ± 0.4 MΩ) or multi-hole (QPlate 16X with a standard resistance 0.2 ± 0.04 MΩ, NaV1.8 only) as previously described ([McMahon et al., 2020]).
(§3) The extracellular solution (ECS) consisted of (in mM) 145 NaCl (replaced with 70 choline chloride for NaV1.4, NaV1.5 and NaV1.7), 4 KCl, 2 CaCl2, 1 MgCl2, 10 HEPES, and 10 glucose, pH to 7.4 with NaOH (adjusted to 305 mOsm/L with sucrose). For NaV recordings the intracellular solution (ICS) consisted of (in mM) 140 CsF, 1 EGTA, 5 CsOH, 10 HEPES, and 10 NaCl, pH to 7.3 with CsOH (adjusted to 320 mOsm/L with sucrose). For KV2.1 recordings the ICS consisted of (in mM) 50 KCl, 60 KF, 10 EGTA, 10 HEPES, 10 NaCl pH to 7.3 with KOH (adjusted to 320 mOsm/L with sucrose). TTX (1 μM) was added to the ECS for NaV1.8 recordings to inhibit background endogenous TTX sensitive current in CHO cells.
I-V curves were obtained with a holding potential of −90 mV followed by a series of 500 ms step pulses that ranged from −110 to +80 mV in 5-mV increments (repetition interval 5 s) before and after 5 min incubation with Eo1a (10 μM). Conductance-voltage (G-V) curves were obtained by calculating the conductance (G) at each voltage (V) using equation G = I/(V − V rev ), where V rev is the reversal potential. G-V curves were fitted with a Boltzmann equation. The voltage dependence of steady-state fast inactivation was examined using a 10-ms pulse of −20 mV (+10 mV for NaV1.8) immediately after the 500-ms step above to assess the available non-inactivated channels.
(§4) The time constant of fast inactivation (τ) was computed by fitting the current decay traces with a single exponential function using QPatch Assay Software 5.6 (Sophion). The time to peak was calculated from pulse onset to peak inward current using QPatch Assay Software 5.6 (Sophion).

A further assay relates to NaV1.2. As to the kind of experiment: I-V protocol, whole-cell patch-clamp, NaV1.2. It counts as cell-based, human. The following applies: Eo1a 10 μM. On the procedure:
as §1, §2
The extracellular solution (ECS) consisted of (in mM) 145 NaCl (replaced with 70 choline chloride for NaV1.4, NaV1.5 and NaV1.7), 4 KCl, 2 CaCl2, 1 MgCl2, 10 HEPES, and 10 glucose, pH to 7.4 with NaOH (adjusted to 305 mOsm/L with sucrose). For NaV recordings the intracellular solution (ICS) consisted of (in mM) 140 CsF, 1 EGTA, 5 CsOH, 10 HEPES, and 10 NaCl, pH to 7.3 with CsOH (adjusted to 320 mOsm/L with sucrose). For KV2.1 recordings the ICS consisted of (in mM) 50 KCl, 60 KF, 10 EGTA, 10 HEPES, 10 NaCl pH to 7.3 with KOH (adjusted to 320 mOsm/L with sucrose). […]
as §4

Assay [1] concerns NaV1.7 with DIV S1-S2 loop of NaV1.8. As to the kind of experiment: Voltage-dependence of activation, NaV1.7/NaV1.8 chimera DIV S1-S2. It counts as cell-based, human. Conditions: Eo1a 10 μM; NaV1.7 with NaV1.8 DIV S1-S2; HEK293 β1/β2, transient; mean ± SEM, n = 3–6 cells. Here is the method: as §1
Wild-type (WT) hNaV1.7 cDNA (NM_002,977, a gift from Dr James Cox, University College London) was subjected to in vitro site-directed mutagenesis using the QuikChange™ XL mutagenesis kit (Agilent Technologies) following the manufacturer’s instructions. NaV1.7 mutants were generated by substituting the domain II (DII) S1-S2 loop, the DII S3-S4 loop, the domain IV (DIV) S1-S2 loop and the DIV S3-S4 loop in NaV1.7 with the corresponding regions of NaV1.8. The mutations were verified by sequencing at the Brisbane node of the Australian Genome Research Facility. […]

The next assay relates to NaV1.1. Description: I-V protocol, whole-cell patch-clamp, NaV1.1. It counts as cell-based, human. The following applies: Eo1a 10 μM. On the procedure:
as §1, §2, §3
(§5) I-V curves were obtained with a holding potential of −90 mV followed by a series of 500 ms step pulses that ranged from −110 to +80 mV in 5-mV increments (repetition interval 5 s) before and after 5 min incubation with Eo1a (10 μM). Conductance-voltage (G-V) curves were obtained by calculating the conductance (G) at each voltage (V) using equation G = I/(V − V rev ), where V rev is the reversal potential. G-V curves were fitted with a Boltzmann equation. […]
as §4

The subject of a further assay is NaV1.8 KO mice. As to the kind of experiment: Spontaneous pain after intraplantar injection, NaV1.8 knockout mice. Conditions: Eo1a intraplantar, significantly reduced vs WT, *p < 0.05 unpaired t-test, mean ± SEM, n = 3–4 mice. Type of assay: in vivo, mouse. An excerpt: Adult male C57BL/6J mice aged 4–8 weeks were sourced from the Animal Resource Centre (Canning Vale, Western Australia). Adult male NaV1.8 knockouts ([Nassar et al., 2004]) (aged 8–11 weeks) and wild-type littermates were housed and tested at University College London. Animals were housed in groups of three or four per cage under 12-h light-dark cycles and were provided with standard rodent chow and water ad libitum. Ethical approval for experiments involving animals was obtained from The University of Queensland animal ethics committee (TRI/IMB/093/17, IMB/PACE/421/18) and the United Kingdom Home Office (project licence PPL 70/7382). All experiments were conducted in accordance with the International Association for the Study of Pain Guidelines for the Use of Animals in Research and the Australian Code of Practice for the Care and Use of Animals for Scientific Purposes, 8th edition (2013).
Eo1a (1 μM or 10 μM) was diluted in saline/0.1% BSA and administered by intraplantar injection to the left hind paw of mice in a volume of 40 μl under isoflurane (3%) anaesthesia, and spontaneous pain behaviours (licks, bites, shakes, and lifts of the hind paw) were counted by a blinded investigator for up to 40 min after the injection.

The subject of a further assay is NaV1.5. Description: I-V protocol, whole-cell patch-clamp, NaV1.5. Type of assay: cell-based, human. Conditions: Eo1a 10 μM. On the procedure: as §1, §2, §3, §5, §4

Where a SMILES comes first, the peptide text is derived from it. Bridges are numbered along the chain shown (N, C = ends).

Take `CC[C@H](C)[C@@H]1NC(=O)[C@H](CCCNC(=N)N)NC(=O)[C@@H]2CSSC[C@@H]3NC(=O)CNC(=O)CNC(=O)[C@H](CC(C)C)NC(=O)[C@H](Cc4ccccc4)NC(=O)[C@H](Cc4c[nH]c5ccccc45)NC(=O)[C@H](CCCNC(=N)N)NC(=O)[C@@H](NC(=O)[C@@H](N)CC(=O)O)CSSC[C@H](NC(=O)[C@H](CSSC[C@@H](C(=O)N[C@@H](C)C(=O)N[C@@H](Cc4c[nH]c5ccccc45)C(=O)N[C@@H](CC(=O)O)C(=O)NCC(=O)N[C@H](C(=O)N[C@@H](Cc4ccccc4)C(N)=O)[C@@H](C)O)NC(=O)[C@H](Cc4ccc(O)cc4)NC(=O)[C@H](CCCCN)NC(=O)[C@H]([C@@H](C)CC)NC(=O)[C@H](Cc4ccc(O)cc4)NC(=O)CNC(=O)[C@H](CC(=O)O)NC1=O)NC(=O)[C@H](CC(=O)O)NC(=O)[C@H](CO)NC(=O)[C@H](CC(=O)O)NC(=O)[C@H](CCCCN)NC(=O)[C@H](CO)NC3=O)C(=O)N[C@@H](CCCCN)C(=O)N[C@@H](Cc1c[nH]cn1)C(=O)N[C@@H](CC(C)C)C(=O)N[C@@H](C)C(=O)N2` [Eo1a] (H-DCRWFLGGCSKDSDCCKHLACRIDGYIKYCAWDGTF-NH2; disulfide 2-16, 9-21, 15-30 (inferred); N-terminus assumed): the “ΔV50 voltage-dependence of steady-state fast inactivation” value at NaV1.8 (5 min, CHO cells, hNaV1.8/β3, 10-ms pulse to +10 mV after 500-ms step, hyperpolarising shift, mean ± SEM, n = 4 cells) is listed as “–15.5 ± 1.8 mV”. The “ΔV50 voltage-dependence of activation” value on NaV1.8 (5 min, CHO cells, hNaV1.8/β3, Boltzmann fit, hyperpolarising shift vs before addition, mean ± SEM, n = 4 cells) is reported as “–20.5 ± 1.2 mV”. The “peak current I/I0” value on NaV1.8 (5 min, peak from I-V protocol at any voltage, normalised to buffer control, CHO hNaV1.8/β3, mean ± SEM, n = 4–6 cells) turned out to be 1.8 ± 0.08; with NaV1.1 (5 min, peak from I-V protocol at any voltage, normalised to buffer control, HEK293 hNaV1.1/β1, mean ± SEM, n = 4–6 cells) it was 0.89 ± 0.03; with NaV1.5 (5 min, peak from I-V protocol at any voltage, normalised to buffer control, HEK293 hNaV1.5/β1, mean ± SEM, n = 4–6 cells) it was 0.41 ± 0.05. At NaV1.8 (NaV1.8, n = 4 cells), the window current entry is given as “comparatively unchanged”. Further, the “activation kinetics (time to peak)” value at NaV1.8 (NaV1.8, potentials between −5 mV and +45 mV, n = 4 cells, two-way ANOVA) was “without significantly altering”. For the same compound, the “fast inactivation kinetics (time constant)” value on NaV1.8 (NaV1.8, single exponential fit, −5 mV to +45 mV, n = 4 cells, two-way ANOVA) is recorded as “without significantly altering”. Moreover, the V1/2 activation at NaV1.8 (NaV1.8, 5 min, control +7.0 ± 1.8 mV, *p < 0.05, mean ± SEM, n = 4–6) is listed as −13.5 mV; with NaV1.2 (5 min, control −15.9 ± 1.2 mV, *p < 0.05, mean ± SEM, n = 4–6), −21.3 mV; in the assay with NaV1.1 (NaV1.1, 5 min, control −21.5 ± 1.5 mV, mean ± SEM, n = 4–6), −24.4 ± 2.1 mV; in the assay on NaV1.5 (NaV1.5, 5 min, control −30.3 ± 4.0 mV, mean ± SEM, n = 4–6), −27.1 ± 2.2 mV. The “V1/2 inactivation (steady-state fast inactivation)” value at NaV1.8 (NaV1.8, 5 min, control −27.4 ± 2.7 mV, *p < 0.05, mean ± SEM, n = 4–6) is −42.9 ± 2.1*; with NaV1.2 (5 min, control −54.6 ± 1.6 mV, mean ± SEM, n = 4–6), −52.7 ± 0.5; with NaV1.1 (NaV1.1, 5 min, control −55.0 ± 1.1 mV, mean ± SEM, n = 4–6), −57.8 ± 2.0; with NaV1.5 (NaV1.5, 5 min, control −70.2 ± 0.9 mV, mean ± SEM, n = 4–6) it was −75.5 ± 1.0. For the same compound, the “effect on inactivation kinetics” value is “minimal effect” in the assay with NaV1.2 (test pulse −20 mV); “minimal effect” in the assay with NaV1.1 (NaV1.1, test pulse −20 mV); “minimal effect” in the assay on NaV1.5 (NaV1.5, test pulse −20 mV). In assay [1], this compound had a ΔV1/2 activation of −4.8 ± 0.6 mV. Besides, the “spontaneous pain (flinches)” value in the assay with NaV1.8 KO mice is on record as 216 ± 26 Flinches/15 min.
